# Laboratory results taken from patent US11186567B2, “AMPA receptor potentiators” (UNIVERSITY COLLEGE CARDIFF CONSULTANTS LIMITED, priority 2017, dated 2021).
# How the values were obtained:
# [1] = Intrinsic clearance (CLi), rat; type: in vitro ADME; settings: 0.5 mg/mL microsomes, 2 μM test article, 2 mM NADPH, 37° C.
# Method: (§1) For example, compounds of the invention preferably have a CLi of less than 100 μL/min/mg in rat and human microsomes. The CLi can be measured using known methods, such as those illustrated in the Examples.
# (§2) The in-vitro intrinsic clearance of the compounds was measured in rat and human […] using the following assay.
# (§3) 5 μL microsomes (20 mg/ml, Corning BV) diluted into 95 μL PBS (pH 7) containing 0.2% DMSO and 4 μM test article were incubated at 37° C. shaking at 1000 rpm prior the addition of 100 μL of pre-warmed 4 mM NADPH in PBS (final concentrations: 0.5 mg/mL microsomes, 2 μM test article, 0.1% DMSO and 2 mM NADPH). After mixing thoroughly the T=0 sample (40 μL) was immediately quenched into ice cold methanol containing 2 μM internal standard (Carbemazapine). Three further samples were quenched in the same way at 3, 9 and 30 min. Samples were incubated on ice for 30 min before centrifugation at 4000 rpm+ for […]. The supernatant was analysed via LCMS and the test article:carbemazapine peak area ratios calculated to determine the rate of substrate depletion.
# [2] = Intrinsic clearance (CLi), human; type: in vitro ADME; settings: 0.5 mg/mL microsomes, 2 μM test article, 2 mM NADPH, 37° C.
# Method: as §1, §2, §3
SMILES,CLi Rat [1] [µL/min/mg],CLi human [2] [µL/min/mg]
"Cc1c(C(F)(F)F)nn(-c2ccc(CN3CCCC3=O)cc2)c1C#N [Example 6, 4-Methyl-2-[4-[(2-oxopyrrolidin-1-yl)methyl]phenyl]-5-(trifluoromethyl)pyrazole-3-carbonitrile]",70.2,6.2
"COCc1c(C)c(C(F)(F)F)nn1-c1ccc(CN2CCCC2=O)cc1 [Example 5, 1-[[4-[5-(Methoxymethyl)-4-methyl-3-(trifluoromethyl)pyrazol-1-yl]phenyl]methyl]pyrrolidin-2-one]",87.4,47.4
"Cc1c(Cl)c(C(F)(F)F)nn1-c1ccc(CN2CCCC2=O)cc1 [Comparative Example, reference compound]",878,71
"CC(C)c1c(CO)c(C(F)(F)F)nn1-c1ccc(CN2CCCC2=O)cc1 [Example 3, 1-[[4-[4-(Hydroxymethyl)-5-isopropyl-3-(trifluoromethyl)pyrazol-1-yl]phenyl]methyl]pyrrolidin-2-one]",2.2,7.9
"Cc1c(C(F)(F)F)nn(-c2ccc(CN3CCCC3=O)cc2)c1C(C)O (centres unmarked) [Example 7, 1-[[4-[5-(1-Hydroxyethyl)-4-methyl-3-(trifluoromethyl)pyrazol-1-yl]phenyl]methyl]pyrrolidin-2-one]",37.7,31.1

# The next lines start with the values.
CLi Rat [1] [µL/min/mg],CLi human [2] [µL/min/mg],SMILES
8.4,4.3,"Cc1c(CO)c(C(F)(F)F)nn1-c1ccc(CN2CCCC2=O)cc1 [Example 1, 1-[[4-[4-(Hydroxymethyl)-5-methyl-3-(trifluoromethyl)pyrazol-1-yl]phenyl]methyl]pyrrolidin-2-one]"
3.7,2.6,"CCc1c(CO)c(C(F)(F)F)nn1-c1ccc(CN2CCCC2=O)cc1 [Example 2, 1-[[4-[5-Ethyl-4-(hydroxymethyl)-3-(trifluoromethyl)pyrazol-1-yl]phenyl]methyl]pyrrolidin-2-one]"
